The text below walks through data of patent US12059422B2 (MEI Pharma, Inc., priority 2011, dated 2024).

Assay [1] addresses T1, PI3Kδ (Homo sapiens, UniProt O00329).
T1 construct: endogenous in cells; host or cells: Raji (ATCC #CCL-86)
The assay is described as follows: ELISA assay for PI3Kδ: sandwich ELISA, phosphorylation of AKT (Thr308) in Raji cells. The class given is cell-based. As to conditions: for IC50: cellular, pAKT (Thr308), Raji cells, anti-Human IgM stimulation, read-out: IC50 p110δ; for α/δ ratio / β/δ ratio / γ/δ ratio: ratio of cellular IC50 values, Table 2. Here is the method:
Cellular PI3Kδ activity was determined by measuring the phosphorylation of AKT (Thr308) using a sandwich enzyme-linked immunosorbant assay (ELISA). Raji (Burkitt's Lymphoma) cells were obtained from ATCC (ATCC #CCL-86). Phosphate buffer saline (PBS) contained 2.7 M NaCl, 54 mM KCl, 86 mM […] (dibasic, anhydrous), and 28 mM […] (monobasic, anhydrous) at pH 7.2. Wash buffer contained PBS supplemented with 0.05% Tween-20. Blocking buffer contained wash buffer supplemented with 1% BSA. A 10× stimulation mixture contained 5 μg/mL anti-Human IgM antibody (Sigma #12386) diluted in serum-free RPMI medium (CellGro #CV-10-040-CV). Compounds for testing were dissolved and serially diluted in 100% DMSO (total of 10 concentrations), and then diluted in serum-free RPMI to 5×final assay concentration.
Raji cells were subcultured in RPMI medium supplemented with 10% fetal bovine serum, 100 IU/mL penicillin, 100 μg/mL streptomycin, and 1×MEM non-essential amino acids. Sandwich ELISA plates were prepared by coating 96-well assay plates (Pierce #15042) with 100 μL/well capture antibody (Cell Signaling Technology #7142 or 7144) diluted in PBS. Plates were incubated overnight at 4° C., then washed with wash buffer, after which 200 μL/well blocking buffer was added to the plates and incubated at room temperature for at least 2 hrs. Raji cells were resuspended in serum-free RPMI medium and seeded into V-bottom, 2-mL 96-well blocks (Corning #3961) at 10^6 cells/well, then incubated for 2 hrs in a 37° C., 5% CO2 incubator. Compound treatment was performed by adding the 5× compound mixture to the cells and incubating for 2 hrs at 37° C., 5% CO2, after which the 10× stimulation mixture was added to the plates and incubated for 30 min at 37° C., 5% CO2. Cells were pelleted by centrifuging plates at 1500 RPM for 5 min at room temperature. Media was carefully removed and cells were lysed by adding 100 μL/well cell lysis buffer (Cell Signaling Technology #9803) supplemented with protease and phosphatase inhibitors (Thermo Fisher #78443). Plates were incubated on ice for 30 min, then the lysates (80 μL for pAKT^T308, 10 μL for total AKT) were transferred to prepared assay plates and incubated at 4° C. overnight. After washing plates with wash buffer, 100 μL/well detection antibody (Cell Signaling Technology #7142 or 7144) diluted in blocking buffer was added to the plates and incubated for 1 hr at 37° C. Plates were washed and 100 μL/well of HRP-conjugated secondary antibody (Cell Signaling Technology #7142 or 7144) diluted in blocking buffer was added to plates and incubated for 1 hr at room temperature. Plates were washed with wash buffer and 100 μL/well of luminescent substrate was added to plates. After 1 min on a plate shaker at medium speed, luminescence was read on a Wallac Victor2 plate reader. IC50 values were determined by curve fitting using a Collaborative Drug Discovery database (www.collaborativedrug.com).

Assay [2] concerns the target T2, PI3K delta (Homo sapiens, UniProt O00329).
T2 construct: purchased Millipore, Billerica, MA, USA
Nature of the assay: Luciferase-based luminescence assay (KinaseGlo), PI3K delta enzymatic activity. In kind it is biochemical. The note with it: for IC50: inhibition of enzymatic activity, KinaseGlo, 25 μM ATP, read-out: IC50 p110δ; for α/δ ratio: ratio of enzymatic IC50 against PI3Kα over IC50 against PI3Kδ; for β/δ ratio / γ/δ ratio: ratio of enzymatic IC50 values, Table 1. A digest of the protocol: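 KinaseGlo luminescence measured ATP remaining after PIP2 (50 μM) phosphorylation with 25 μM ATP in HEPES pH 7.5 buffer with CHAPS and DTT. Final enzyme was 1.65 nM alpha (1 h reaction) or 6.86 nM delta (2 h reaction). IC50 was curve-fitted from 10 concentrations.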
(In Kinase-Glo more light means more ATP remaining.)

A value given as a limit tells only on which side of the number the result lay.

One may read the IC50 as the midpoint of a concentration-inhibition curve.

T2 sequence (O00329 whole entry, species assumed): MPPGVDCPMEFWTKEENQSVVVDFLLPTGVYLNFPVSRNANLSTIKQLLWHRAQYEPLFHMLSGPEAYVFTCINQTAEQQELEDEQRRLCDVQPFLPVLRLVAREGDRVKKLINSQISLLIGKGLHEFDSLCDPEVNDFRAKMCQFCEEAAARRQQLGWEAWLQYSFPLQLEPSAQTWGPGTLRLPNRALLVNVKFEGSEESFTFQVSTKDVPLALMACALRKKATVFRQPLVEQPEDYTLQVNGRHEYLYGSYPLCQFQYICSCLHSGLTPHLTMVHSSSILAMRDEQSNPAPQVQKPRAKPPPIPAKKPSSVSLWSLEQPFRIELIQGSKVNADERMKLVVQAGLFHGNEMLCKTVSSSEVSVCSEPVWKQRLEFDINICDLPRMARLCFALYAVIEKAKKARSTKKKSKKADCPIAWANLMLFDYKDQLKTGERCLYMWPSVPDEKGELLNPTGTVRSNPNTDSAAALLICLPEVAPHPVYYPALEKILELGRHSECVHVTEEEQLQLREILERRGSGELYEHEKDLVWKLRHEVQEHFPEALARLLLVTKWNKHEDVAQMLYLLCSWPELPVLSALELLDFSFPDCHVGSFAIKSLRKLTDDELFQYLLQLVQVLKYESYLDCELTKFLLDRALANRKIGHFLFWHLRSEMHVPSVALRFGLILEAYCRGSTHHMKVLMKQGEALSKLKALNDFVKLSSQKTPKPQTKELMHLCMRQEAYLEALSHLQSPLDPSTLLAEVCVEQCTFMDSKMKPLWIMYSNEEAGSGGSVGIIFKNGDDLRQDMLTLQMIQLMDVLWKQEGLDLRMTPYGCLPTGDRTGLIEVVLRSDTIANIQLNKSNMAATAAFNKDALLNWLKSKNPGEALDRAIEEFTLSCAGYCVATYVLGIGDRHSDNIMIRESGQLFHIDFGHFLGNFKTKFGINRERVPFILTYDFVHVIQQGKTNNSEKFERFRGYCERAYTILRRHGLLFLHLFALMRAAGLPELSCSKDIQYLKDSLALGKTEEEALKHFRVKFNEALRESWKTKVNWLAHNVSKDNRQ
T2 sequence (P27986 whole entry partner, species assumed): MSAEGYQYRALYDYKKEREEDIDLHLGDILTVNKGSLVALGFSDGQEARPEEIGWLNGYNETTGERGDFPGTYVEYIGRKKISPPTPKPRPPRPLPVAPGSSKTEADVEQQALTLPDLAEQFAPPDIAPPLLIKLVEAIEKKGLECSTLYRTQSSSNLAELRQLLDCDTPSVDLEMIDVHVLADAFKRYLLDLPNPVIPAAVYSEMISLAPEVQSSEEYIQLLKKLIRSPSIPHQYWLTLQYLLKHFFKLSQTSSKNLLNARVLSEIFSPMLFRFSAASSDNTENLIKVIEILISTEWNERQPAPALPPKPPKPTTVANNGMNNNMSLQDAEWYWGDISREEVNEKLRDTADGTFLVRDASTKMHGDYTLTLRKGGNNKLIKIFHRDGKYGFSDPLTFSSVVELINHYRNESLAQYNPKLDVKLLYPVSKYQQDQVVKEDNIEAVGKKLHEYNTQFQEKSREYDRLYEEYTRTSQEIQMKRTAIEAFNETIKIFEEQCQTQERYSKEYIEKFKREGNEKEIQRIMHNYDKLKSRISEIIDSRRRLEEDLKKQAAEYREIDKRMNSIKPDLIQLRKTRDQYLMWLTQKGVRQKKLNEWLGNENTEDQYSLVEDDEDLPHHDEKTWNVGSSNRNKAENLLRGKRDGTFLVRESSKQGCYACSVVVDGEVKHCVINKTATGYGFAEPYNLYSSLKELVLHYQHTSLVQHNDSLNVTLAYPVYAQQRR
T1 sequence (O00329 whole entry): as the sequence (O00329 whole entry, species assumed) above
T1 sequence (P27986 whole entry partner): as the sequence (P27986 whole entry partner, species assumed) above

Consider `CC(C)(Cc1ccccc1)Nc1nc(N2CCOCC2)nc(-n2c(C(F)F)nc3ccccc32)n1` [Compound A14, 4-(2-(difluoromethyl)-1H-benzo[d]imidazol-1-yl)-N-(2-methyl-1-phenylpropan-2-yl)-6-morpholino-1,3,5-triazin-2-amine], for which, in assay [1], the 50% inhibitory concentration (IC50) was not above 100 nM, the α/δ ratio entry is given as “A’”, the β/δ ratio entry is on record as “A’” and the γ/δ ratio entry is listed as “A’”. Besides, in assay [2], the IC50 is not above 100 nM, the α/δ ratio entry is “A’”, the β/δ ratio result is reported as “D’” and the γ/δ ratio result was “A’”.

Consider `CC(C)(Cc1ccccc1F)Nc1nc(N2CCOCC2)nc(-n2c(C(F)F)nc3ccccc32)n1` [Compound A15, 4-(2-(difluoromethyl)-1H-benzo[d]imidazol-1-yl)-N-(1-(2-fluorophenyl)-2-methylpropan-2-yl)-6-morpholino-1,3,5-triazin-2-amine], for which, in assay [1], the 50% inhibitory concentration (IC50) was not above 100 nM, the α/δ ratio result is “A’”, the β/δ ratio entry is “C’” and the γ/δ ratio entry is “A’”. In assay [2], the IC50 is not above 100 nM, the α/δ ratio result is “A’”, the β/δ ratio entry is given as “C’” and the γ/δ ratio result is “A’”.

For the compound `CC(C)(Cc1ccccc1Cl)Nc1nc(N2CCOCC2)nc(-n2c(C(F)F)nc3ccccc32)n1` [Compound A16, 4-(2-(difluoromethyl)-1H-benzo[d]imidazol-1-yl)-N-(1-(2-chlorophenyl)-2-methylpropan-2-yl)-6-morpholino-1,3,5-triazin-2-amine], in assay [1], the IC50 was not above 100 nM, the α/δ ratio entry is reported as “A’”, the β/δ ratio result is “A’” and the γ/δ ratio entry is on record as “A’”. For the same compound, in assay [2], the IC50 is not above 100 nM, the α/δ ratio result is recorded as “A’”, the β/δ ratio result was “D’” and the γ/δ ratio result is “C’”.

Turning to `Cc1ccccc1CC(C)(C)Nc1nc(N2CCOCC2)nc(-n2c(C(F)F)nc3ccccc32)n1` [Compound A18, 4-(2-(difluoromethyl)-1H-benzo[d]imidazol-1-yl)-N-(2-methyl-1-(o-tolyl)propan-2-yl)-6-morpholino-1,3,5-triazin-2-amine], in assay [1], the half-inhibitory concentration (IC50) was not above 100 nM, the α/δ ratio entry is listed as “A’”, the β/δ ratio result is on record as “A’” and the γ/δ ratio entry is listed as “A’”. Moreover, in assay [2], the IC50 was not above 100 nM, the α/δ ratio result is given as “A’”, the β/δ ratio entry is “D’” and the γ/δ ratio result is on record as “B’”.

In the case of `COc1ccccc1CC(C)(C)Nc1nc(N2CCOCC2)nc(-n2c(C(F)F)nc3ccccc32)n1` [Compound A19, 4-(2-(difluoromethyl)-1H-benzo[d]imidazol-1-yl)-N-(1-(2-methoxyphenyl)-2-methylpropan-2-yl)-6-morpholino-1,3,5-triazin-2-amine], in assay [1], the concentration for half-maximal inhibition (IC50) was not above 100 nM and the β/δ ratio entry is given as “D’”. In assay [2], the IC50 was not above 100 nM, the α/δ ratio entry was “B’”, the β/δ ratio entry is listed as “B’” and the γ/δ ratio result is reported as “B’”.

As to `COc1cccc(CC(C)(C)Nc2nc(N3CCOCC3)nc(-n3c(C(F)F)nc4ccccc43)n2)c1` [Compound A21, 4-(2-(difluoromethyl)-1H-benzo[d]imidazol-1-yl)-N-(1-(3-methoxyphenyl)-2-methylpropan-2-yl)-6-morpholino-1,3,5-triazin-2-amine], in assay [1], the 50% inhibitory concentration (IC50) was not above 100 nM, the α/δ ratio entry is listed as “A’”, the β/δ ratio entry is reported as “A’” and the γ/δ ratio result was “A’”. Further, in assay [2], the half-maximal inhibitory concentration (IC50) was not above 100 nM, the α/δ ratio entry was “A’”, the β/δ ratio entry is given as “B’” and the γ/δ ratio result is on record as “A’”.

As for `CC(C)(Cc1ccc(F)cc1)Nc1nc(N2CCOCC2)nc(-n2c(C(F)F)nc3ccccc32)n1` [Compound A22, 4-(2-(difluoromethyl)-1H-benzo[d]imidazol-1-yl)-N-(1-(4-fluorophenyl)-2-methylpropan-2-yl)-6-morpholino-1,3,5-triazin-2-amine], in assay [1], the IC50 is not above 100 nM, the α/δ ratio entry is “A’”, the β/δ ratio entry is listed as “A’” and the γ/δ ratio result is listed as “A’”. In assay [2], the IC50 was not above 100 nM, the α/δ ratio result is “A’”, the β/δ ratio result is on record as “C’” and the γ/δ ratio result was “A’”.

Regarding `CC(C)(Cc1cccc2ccccc12)Nc1nc(N2CCOCC2)nc(-n2c(C(F)F)nc3ccccc32)n1` [Compound A27, 4-(2-(difluoromethyl)-1H-benzo[d]imidazol-1-yl)-N-(2-methyl-1-(naphthalen-1-yl)propan-2-yl)-6-morpholino-1,3,5-triazin-2-amine], in assay [1], the IC50 is not above 100 nM and the β/δ ratio entry was “C’”. In addition, in assay [2], the IC50 was not above 100 nM, the α/δ ratio entry is given as “A’”, the β/δ ratio entry is reported as “D’” and the γ/δ ratio result is reported as “D’”.

For the compound `CC(C)(Cc1ccccc1-c1ccncc1)Nc1nc(N2CCOCC2)nc(-n2c(C(F)F)nc3ccccc32)n1` [Compound A33, 4-(2-(difluoromethyl)-1H-benzo[d]imidazol-1-yl)-N-(2-methyl-1-(2-(pyridin-4-yl)phenyl)propan-2-yl)-6-morpholino-1,3,5-triazin-2-amine], in assay [1], the IC50 is not above 100 nM, the β/δ ratio entry was “A’” and the γ/δ ratio result is on record as “A’”. Further, in assay [2], the 50% inhibitory concentration (IC50) is not above 100 nM, the α/δ ratio result is “A’”, the β/δ ratio result is “D’” and the γ/δ ratio result was “A’”.

For `CN1CCC(c2ccccc2CC(C)(C)Nc2nc(N3CCOCC3)nc(-n3c(C(F)F)nc4ccccc43)n2)CC1` [Compound A35, 4-(2-(difluoromethyl)-1H-benzo[d]imidazol-1-yl)-N-(2-methyl-1-(2-(1-methylpiperidin-4-yl)phenyl)propan-2-yl)-6-morpholino-1,3,5-triazin-2-amine], in assay [1], the half-maximal inhibitory concentration (IC50) was not above 100 nM, the α/δ ratio result is given as “A’”, the β/δ ratio result is given as “A’” and the γ/δ ratio entry was “A’”. In assay [2], the IC50 was not above 100 nM, the α/δ ratio result is given as “A’”, the β/δ ratio result was “A’” and the γ/δ ratio result was “A’”.

In the case of `CC(C)(Cc1cccc(F)c1)Nc1nc(N2CCOCC2)nc(-n2c(C(F)F)nc3ccccc32)n1` [Compound A39, 4-(2-(difluoromethyl)-1H-benzo[d]imidazol-1-yl)-N-(1-(3-fluorophenyl)-2-methylpropan-2-yl)-6-morpholino-1,3,5-triazin-2-amine], in assay [1], the IC50 was not above 100 nM, the α/δ ratio result is recorded as “A’” and the γ/δ ratio entry is given as “A’”. In addition, in assay [2], the IC50 is not above 100 nM, the α/δ ratio entry is on record as “A’”, the β/δ ratio result is “D’” and the γ/δ ratio result is given as “B’”.

In the case of `CN1CCC(c2ccccc2CC(C)(C)Nc2nc(N3CCOCC3)nc(-n3c(C(F)F)nc4ccccc43)n2)C1` (centres unmarked) [Compound A75, 4-(2-(difluoromethyl)-1H-benzo[d]imidazol-1-yl)-N-(2-methyl-1-(2-(1-methylpyrrolidin-3-yl)phenyl)propan-2-yl)-6-morpholino-1,3,5-triazin-2-amine], in assay [1], the 50% inhibitory concentration (IC50) was not above 100 nM, the α/δ ratio entry is “A’”, the β/δ ratio entry is “B’” and the γ/δ ratio entry is “A’”.
